Data set [1] concerns the target T1, human 5-HT1A receptor (Homo sapiens, UniProt P08908).
T1 construct: expressed in transfected cells; host or cells: HEK293
T1 sequence (P08908 1-422): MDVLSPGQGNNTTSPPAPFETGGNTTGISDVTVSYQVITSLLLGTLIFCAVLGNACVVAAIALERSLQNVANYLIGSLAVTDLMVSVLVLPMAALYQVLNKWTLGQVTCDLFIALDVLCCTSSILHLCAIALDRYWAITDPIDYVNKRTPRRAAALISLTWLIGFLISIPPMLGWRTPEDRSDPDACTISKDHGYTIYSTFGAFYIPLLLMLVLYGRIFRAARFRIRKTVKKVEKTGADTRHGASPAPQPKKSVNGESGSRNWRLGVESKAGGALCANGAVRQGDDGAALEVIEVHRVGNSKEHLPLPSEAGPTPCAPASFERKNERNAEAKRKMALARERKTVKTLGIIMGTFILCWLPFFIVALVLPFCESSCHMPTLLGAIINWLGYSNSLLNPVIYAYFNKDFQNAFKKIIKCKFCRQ
The data set is described as follows: 5-HT1A receptor binding assay (3H-8-OH-DPAT).

For data set [2] the following is noted: cited from earlier work.
The test system of data set [3] is dorsal raphe neurons. The following applies: systemic administration (I.V. and intragastric for metabolites), rats; cited from earlier work.
The conditions of data set [4]: cited from earlier work. The source holds these as a separate data set.
The test system of data set [5] is rat pup ultrasonic vocalization. The data set is described as follows: Rat pup isolation-induced ultrasonic vocalization test. It is filed as in vivo, rat (Harlan Sprague-Dawley pups). The following applies: for suppression of rat pup ultrasonic vocalization: 0.03-1 mg/kg, cold plate; for suppression of rat pup ultrasonic vocalization / ED50: sc, 30 min prior to test; for ED50: Rattus norvegicus, 0.5 h, doses refer to weight of the salt, read-out: ID50, dose predicted to reduce the number of calls by 50%; for anxiolytic activity in rat pup isolation-induced ultrasonic vocalization model (in words): in vivo.

The nature of data set [6]: Human pharmacokinetic study, multiple oral buspirone doses (25 days). It is filed as in vivo. The source says: The human dosing schedule is shown below. |______________________________________ […] | Interval BID Dose (mg) (Study Day) |______________________________________ […] | 3 15 15 […] | 5 30 25 |______________________________________
A short description of data set [7]: Previous laboratory testing for antianxiety properties. To be noted: laboratory methods developed for azapirone compounds.
A short description of data set [8]: Modified Vogel Conflict test. The data set is classed as in vivo. To be noted: earlier in-house testing. The source says:
Earlier in-house functional testing of BMY 28674 utilized an in vivo test method based on modification of the Vogel Conflict test, a simple reliable conflict procedure for testing antianxiety agents (see: Vogel, et al., Psychopharmacologia, (Berl.) 21, pp. 1-7, 1971). […] No useful antianxiety activity has been ascribed to BMY 28674 previously.

For data set [9], the system named is rat pup locomotor activity. The experiment in a line: Locomotor activity (grid cell crossings) in the rat pup. It is filed as in vivo, rat (Harlan Sprague-Dawley pups). To be noted: sc; for locomotor activity (in words): 0.03-1 mg/kg.

“Also recorded” adds a separate entry of the source. Read-outs that look alike come from different tables or passages of the source.

Consider `c1cnc(N2CCNCC2)nc1` [1-PP, 1-(2-pyrimidinyl)piperazine], for which, in data set [1], the “affinity for human 5-HT1A receptor (in words)” value is “does not demonstrate binding”. The “anxiogenic properties in other behavioral testing paradigms” value in data set [2] (Cervo et al., 1988, Martin, 1991) is “displayed anxiogenic properties”. Moreover, the “antianxiety activity in certain other preclinical tests” value in data set [2] (U.S. Pat. No. 4,409,223) is on record as “some antianxiety activity”. Also, the “inhibition of dorsal raphe neuronal firing” value in data set [3] is “weak inhibition”.
As for `Oc1cnc(N2CCNCC2)nc1` [5-hydroxy-1PP, reference compound], the “abundance as metabolite in human urine” value in data set [4] (in vivo) was “most”.
As to `O=C1CC2(CCCC2)C(O)C(=O)N1CCCCN1CCN(c2ncccn2)CC1` (stereo not drawn) [BMY 28674, 6-hydroxy-8-[4-[4-(2-pyrimidinyl)-piperazinyl]-butyl]-8-azaspiro[4.5]-7,9-dione], in data set [5], the “suppression of rat pup ultrasonic vocalization” value is “dose-dependent suppression”, the ED50 was 0.13 mg/kg and the “anxiolytic activity in rat pup isolation-induced ultrasonic vocalization model (in words)” value is listed as “anxiolytic-like activity”. In addition, the “doses for anxiolytic activity relative to those required to suppress motor activity” value in data set [5] (vs suppression of motor activity) is “much lower doses”. In data set [4] (after buspirone), the “abundance as metabolite in human urine” value is listed as “second most abundant metabolite”. The “affinity for human 5-HT1A receptor (in words)” value in data set [1] is given as “binding affinity that approaches that of buspirone; also recorded: binding affinity closer to that of buspirone”. In addition, the “blood concentration relative to 1-PP” value in [6] (after oral buspirone, BMY 28674 vs 1-PP) is “several-fold greater; also recorded: several-fold higher”. Moreover, the “blood levels compared to buspirone (in words)” value in data set [6] (oral buspirone BID, 12-hour dosing period) was “much higher and are sustained compared to buspirone”. In addition, the “antianxiety activity in previous testing” value in [7] was “no anxiolytic activity was detected; also recorded: No significant antianxiety activity”. Also, in [8], the “antianxiety response in the Vogel test” value was “did not elicit an antianxiety response”. Moreover, the “locomotor activity (in words)” value in [9] (30 min prior to test) is given as “significantly impaired”. For the same molecule, the ED50 in data set [9] (Rattus norvegicus, 0.5 h, 30 min prior to test, doses refer to weight of the salt, read-out: ID50 dose estimated to reduce locomotor activity) is 0.41 mg/kg. For the same molecule, in data set [9] (locomotor vs ultrasonic calls, 30 min), the “ratio of doses impairing locomotor activity to doses suppressing ultrasonic calls” value is “approximately 3 fold”.
Turning to `O=C1CC2(CCCC2)CC(=O)N1CCCCN1CCN(c2ncccn2)CC1` [Buspirone, reference compound], in data set [5], the “suppression of rat pup ultrasonic vocalization” value is given as “dose-dependent suppression”, the ED50 was 0.1 mg/kg and the “anxiolytic activity in rat pup isolation-induced ultrasonic vocalization model (in words)” value was “anxiolytic-like activity”. The concentration at 2 h in [6] (human, in vivo, po) was < 1 ng/mL. The “inhibition of dorsal raphe neuronal firing” value in data set [3] is “potently inhibits”. The “locomotor activity (in words)” value in data set [9] (30 min prior to test) is recorded as “impaired”.

These data come from patent US6150365A, “Anxiety method” (priority 2000, dated 2000).
